Columns and labels:
Assay type in all cases: cell-based
each cell line tested = assay: ATP levels by CellTiter-Glo, all cell lines of Table 1 taken together; conditions: 100 μM compound with 2-DG, Table 1 cell lines
Text: A wide variety of ATP luminescing detection reagents are available commercially. So long as the reagent produces a luminescence in the presence of ATP, the reagent will be suitable for use in the present method. Suitable reagents include but are not limited to any ATP dependent luciferase such as but not limited to firefly luciferase, other modified luciferase based reagents, i.e. luciferase derivatives. According to the rapid method for determining the anti-cancer activity of a compound, a sample of living cells is distributed across a number of testing wells. Typically, 96-well plates are used; however, the number of wells is not critical to the current method. When using a 96-well plate the number of living cells will commonly be about 20,000. […] The sample wells contain a cell growth medium to promote cell health and growth and an additive to prevent bacterial contamination of the wells. One common example of the cell growth medium is DMEM with 10% FBS as described above. One example of the additive to prevent bacterial contamination is a solution of penicillin G and streptomycin referred to commonly as Pen-Strep. The Pen-Strep solution typically contains 5000 units of penicillin G and 5000 micrograms of streptomycin. Thus, the rapid determination of anti-cancer compounds can be carried out using the following method. • The desired number of cells are distributed in a 96-well plate containing 100 μL DMEM plus 10% FBS with optional Pen-Strep. • After 24 hours, cells are treated with the compound of interest or a 5% solution of dimethyl sulfoxide (DMSO) in water as a control. • The time period for exposure to the compound of interest and the DMSO control will vary depending on the luminescing detection reagent. However, when using a commercially available reagent such as resazurin (CellTiter Blue commercially available from Promega) or luciferase or a luciferase derivative (CellTiter Glo commercially available from Promega) the time period can be readily determined with reference to literature from the commercial source. Other luminescing detection agents can also be used with minimal experimentation to determine the desired compound exposure time. • Upon completion of the time period for exposure to the compound of interest or the DMSO, 10 μL of the luminescing detection reagent is added and the cells are lysed by a detergent added along with the luminescing detection reagent. • When the reagent is resazurin, as found in CellTiter-Blue the time period for exposure to the compound of interest and the DMSO will be about 24 hours. • When the reagent is luciferase or a luciferase derivative as found in CellTiter-Glo the time period for exposure to the compound of interest and the DMSO will be about 30 minutes to four hours. • The luminescing detection reagent is added over a period of time. • When using resazurin, the time period for the addition of the 10 μl volume takes place over a period of about one to four hours. • When using luciferase or a luciferase derivative, the time period is about 3 minutes to about 7 minutes, typically about 5 minutes. • During the time period of addition of the luminescing detection reagent the resulting luminescence is measured using conventional methods and devices. […] If the compound of interest deactivates the cell, then the cell produces less or no ATP. As a result, the cells in the well treated with the compound of interest will have a lower luminescence value as compared to the cells in wells treated with DMSO. • The value for the cells treated with the compound of interest is reported as a “percent of control” (POC) value. The determination of POC is calculated by dividing the averaged response from duplicate wells containing the cells as treated with the compound of interest by the average response of duplicate control wells which contain only cells and DMSO (in other words, a blank control experiment). […]

H293 = assay: Cytotoxicity testing, CellTiter-Blue assay, 24 hour (FIG. 3); conditions: 100 μM, 24 hour compound incubation
Description: (§1) The cytotoxicity tests were carried out in the following manner. Living cells are known to convert resazurin to the fluorescent compound resorufin. Test systems which rely upon this reaction are commercially available. One such test is known at the Cell Titer Blue Cell Viability test assay from Promega. Cell cultures for each of the identified cancer lines were obtained from ATCC and maintained in Dulbecco's Modified Eagle Medium (DMEM) supplemented with 10% fetal bovine serum (FBS) and pen/strep. As known to those skilled in the art, DMEM typically includes the components identified below.
(§2) The test method provides for incubating the cell cultures at temperatures which correspond to the range of body temperatures experienced by the patient from which the cancer cells were obtained. Typically, incubation temperatures will be between the temperatures of 36.1° C. and 37.2° C. In most cases incubation will occur at 37° C. Additionally, the cell cultures are kept under an atmosphere which mimics cell conditions of the tumor within the patient's body. In most cases, the tumor microenvironment (TME) is characterized by hypoxia (low oxygen) and may also be characterized by hypercapnia (increased CO2). Hypercapnia results from decreased blood flow which limits CO2 elimination. Restricted CO2 elimination leads to increased HCO3^− conversion to CO2 in order to neutralize lactate as altered tumor cell metabolism produces more CO2 than normal. Normal tissue averages about 5% oxygen with oxygen ranges from about 3% to 7.4%. […] In the case of CO2, normocapnic is around 5% CO2, while hypercapnic can rise to 10% CO2. Therefore, to mimic the environment of the tumor the method utilizes an incubator designed to provide the optimal gaseous environment corresponding to that of the tumor. Thus, the incubator will be capable of maintaining an atmosphere having an oxygen content in the range of […] and a CO2 in the range of 1% to 10%.
(§3) After allowing for proliferation of the cells, the cells were distributed across a plurality of test wells containing from 100 μL DMEM plus 10% FBS and allowed to attach to the surface of the test wells. Typically, the time for attachment will require about 12 hours to about 18 hours. […] Following treatment of the cells with the N-benzyl sulfonamide or control, the toxicity of the compound to the cells will be determined by addition of a luminescing agent. […] Subsequently, the fluorescence of resazurin is measured by excitation at 560 nm and recording the emission at 590 nm within an instrument configured to measure fluorescence intensity. Two commercially available systems are the BioTek Cytation 5 plate reader and the Promega Glomax Multi+detection system. […]

[1] = test system: HEK293 (kidney cancer) cells; assay: Traditional versus rapid screening (FIG. 15); conditions: DMEM, CellTiter-Glo 1 hr, with or without 2DG, versus CellTiter-Blue/CellTiter-Glo 24 hr
Text: FIG. 15 provides a comparison of traditional cytotoxicity testing the improved testing method described herein using HEK293 cells (kidney cancer), DMEM media, and the library sulfonamide compounds 1-30 found in FIGS. 1A-1C.
When used to identify compounds for specific patients, the following steps will be carried out: • Individualized patient cells will be acquired from a tumor biopsy and cultured/grown in patient blood serum and/or plasma. (In most instances the cells will be obtained using a needle biopsy; i.e. fine needle aspiration biopsy. Optionally, the cells may be obtained from resected tumor (i.e. excisional biopsy, which is an attempt at complete tumor removal), and/or a core biopsy; (i.e. removal of part of the tumor). Alternatively, cells may be obtained from blood draw samples, which would contain leukemia, lymphoma and myeloma cells.) • The cells (as few as 100 cells per experiment) will be screened directly in patient blood serum and/or plasma in the absence or presence of glycolysis inhibitor, 2-deoxyglucose (2DG) using a rapid (1-2 hr) screening assay (CellTiter-Glo, or “CTG”). • NOTE: while the discussion herein focuses on CTG, other assays suitable for measuring changes in ATP levels will perform equally as well. […] DMEM contains glucose, but L15 has substituted glucose with galactose. […]

NCI-H196 = assay: Cytotoxicity testing, CellTiter-Blue assay, 24 hour (FIG. 3); conditions: 100 μM, 24 hour compound incubation
Description: as §1, §2, §3

Row | SMILES | effectiveness across the cell lines, with 2-DG (each cell line tested) | other results
1 | CC(=O)n1cc(CNS(=O)(=O)c2ccc(Cl)cc2)c2ccccc21 [Compound 4, N-[(1-acetyl-1H-indole-3-yl)methyl]-4-chlorobenzenesulfonamide] | little effect | 
2 | Cc1cccc2c(CNS(=O)(=O)c3ccccc3)c[nH]c12 [Compound 6, N-[(7-methyl-1H-indol-3-yl)methyl]benzenesulfonamide] |  | effectiveness, percent reduction in cell viability (FIG. 3) (H293): effective
3 | Cc1ccc(S(=O)(=O)NCc2ccc3ncccc3c2)cc1 [Compound 22, 4-methyl-N-(quinolin-6-ylmethyl)benzenesulfonamide] | little effect | 
4 | Cc1ccc(S(=O)(=O)NCc2c[nH]c3ccccc23)cc1 [Compound 1, N-[(1H-indol-3-yl)methyl]-4-methylbenzenesulfonamide] | little effect | 
5 | Cc1ccc(S(=O)(=O)NCc2c[nH]c3cccc(Br)c23)cc1 [Compound 5, N-[(4-bromo-1H-indol-3-yl)methyl]-4-methylbenzenesulfonamide] |  | sensitivity of rapid assays versus traditional methods (FIG. 15) [1]: enhanced sensitivity; effectiveness, percent reduction in cell viability (FIG. 3) (H293): effective; effectiveness, percent reduction in cell viability (FIG. 3) (NCI-H196): effectiveness
6 | COc1ccc(S(=O)(=O)NCc2c[nH]c3ccccc23)cc1 [Compound 23, N-(1H-indol-3-ylmethyl)-4-methoxybenzenesulfonamide] | little effect | 
7 | O=S(=O)(NCc1c[nH]c2ccccc12)c1ccccc1 [Compound 3, N-[(1H-indol-3-yl)methyl]benzenesulfonamide] | little effect | 

Reference: patent US20250093329A1, “SCREENING OF COMPOUNDS” (THE UNIVERSITY OF TULSA, priority 2022, published 2025)
